According to paper PMC5511785 (Journal of pharmaceutical sciences, 2017):
Where two headings read alike, the source gives them in different places.

Legend:
[1] = system: GFP-OATP1B3; format: cell-based, human
[2] = system: OATP1B1; experiment: Immunoblot of total OATP1B1 protein in HEK293-OATP1B1 cells; format: cell-based, human; settings: 10 μM, 1 h
[3] = cited from earlier work
[4] = target: T1, OATP1B1 (Homo sapiens, UniProt Q9Y6L6); experiment: cell-based; settings: [3H]-E217βG 1 μM, 2 min, HEK293-OATP1B1
T1 sequence (Q9Y6L6 1-691): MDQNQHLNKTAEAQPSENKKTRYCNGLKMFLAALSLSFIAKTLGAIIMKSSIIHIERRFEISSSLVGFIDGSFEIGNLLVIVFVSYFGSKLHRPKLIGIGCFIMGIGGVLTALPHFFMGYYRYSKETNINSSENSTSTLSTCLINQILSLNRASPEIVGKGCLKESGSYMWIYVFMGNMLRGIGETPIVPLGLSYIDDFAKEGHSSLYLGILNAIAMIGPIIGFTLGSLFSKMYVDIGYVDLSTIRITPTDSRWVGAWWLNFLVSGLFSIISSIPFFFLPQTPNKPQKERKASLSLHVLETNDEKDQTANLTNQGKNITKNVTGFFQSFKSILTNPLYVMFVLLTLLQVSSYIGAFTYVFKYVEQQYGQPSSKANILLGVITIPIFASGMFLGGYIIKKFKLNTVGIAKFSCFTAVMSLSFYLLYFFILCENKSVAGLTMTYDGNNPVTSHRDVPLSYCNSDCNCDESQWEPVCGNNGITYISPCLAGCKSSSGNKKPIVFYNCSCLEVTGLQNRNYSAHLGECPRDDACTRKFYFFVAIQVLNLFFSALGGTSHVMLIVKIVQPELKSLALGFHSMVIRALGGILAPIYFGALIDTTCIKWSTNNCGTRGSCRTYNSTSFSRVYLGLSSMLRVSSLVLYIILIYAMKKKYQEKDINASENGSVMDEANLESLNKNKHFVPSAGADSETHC

[5] = system: OATP1B3; experiment: Immunoblot of total OATP1B3 protein in HEK293-OATP1B3 cells; format: cell-based, human; settings: 10 μM, 1 h
[6] = system: HEK293-OATP1B1 and -1B3 cells; settings: 1 h treatment; rifampicin up to 25 μM, dasatinib up to 20 μM
[7] = cited from earlier work; remark: listed apart in the source
[8] = system: GFP-OATP1B1; format: cell-based, human
[9] = co-administration of dasatinib with simvastatin; cited from earlier work
[10] = target: T1, OATP1B1
[11] = system: OATP1B1; settings: co-incubation with 10 μM; cited from earlier work
[12] = target: T2, GFP-OATP1B1 (Homo sapiens, UniProt Q9Y6L6); experiment: [3H]-E217βG accumulation in HEK293-GFP-OATP1B1 cells
T2 sequence (Q9Y6L6 1-691): T1 sequence (Q9Y6L6 1-691)

[13] = target: T3, OATP1B3 (Homo sapiens, UniProt Q9NPD5)
T3 sequence (Q9NPD5 1-702): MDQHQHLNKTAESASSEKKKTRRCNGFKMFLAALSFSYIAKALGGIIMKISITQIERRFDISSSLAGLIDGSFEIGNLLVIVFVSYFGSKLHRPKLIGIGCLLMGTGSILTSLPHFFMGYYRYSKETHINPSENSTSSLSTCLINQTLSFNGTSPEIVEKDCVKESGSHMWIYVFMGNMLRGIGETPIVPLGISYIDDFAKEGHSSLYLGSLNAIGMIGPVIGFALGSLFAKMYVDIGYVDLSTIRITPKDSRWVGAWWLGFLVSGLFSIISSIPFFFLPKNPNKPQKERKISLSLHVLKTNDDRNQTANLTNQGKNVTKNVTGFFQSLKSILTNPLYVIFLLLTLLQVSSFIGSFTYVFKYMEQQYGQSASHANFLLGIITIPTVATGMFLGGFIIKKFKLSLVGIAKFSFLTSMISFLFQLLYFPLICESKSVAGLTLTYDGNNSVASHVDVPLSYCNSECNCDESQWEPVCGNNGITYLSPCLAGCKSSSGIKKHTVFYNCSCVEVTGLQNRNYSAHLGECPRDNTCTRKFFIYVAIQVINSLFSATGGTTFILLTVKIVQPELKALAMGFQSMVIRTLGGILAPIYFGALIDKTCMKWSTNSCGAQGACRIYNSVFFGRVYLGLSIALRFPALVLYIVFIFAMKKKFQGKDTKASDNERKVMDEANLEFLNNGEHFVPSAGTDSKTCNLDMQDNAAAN

[14] = target: T4, GFP-OATP1B3 (Homo sapiens, UniProt Q9NPD5); experiment: [3H]-E217βG accumulation in HEK293-GFP-OATP1B3 cells
T4 sequence (Q9NPD5 1-702): T3 sequence (Q9NPD5 1-702)

[15] = system: OATP1B1; settings: 1–25 μM; cited from earlier work
[16] = target: T1, OATP1B1; experiment: OATP1B1-mediated [3H]-pitavastatin accumulation; format: cell-based; settings: 10 μM, 1 h pre-incubation
[17] = target: T3, OATP1B3; experiment: cell-based; settings: [3H]-E217βG 1 μM, 2 min, HEK293-OATP1B3
[18] = Estimated maximum unbound inhibitor concentration at the inlet to the liver; parameters: species or system human; settings: Supplemental Table S2
[19] = target: T1, OATP1B1; experiment: OATP1B1-mediated [3H]-E1S accumulation; format: cell-based; settings: 1 μM, 30 min or 1 h
[20] = 20 μM, up to at least 1 h (data not shown)
[21] = IC50, co-incubation, without pretreatment
[22] = IC50, pre+co-incubation (1 h pretreatment)
[23] = substrate kinetics, vehicle control pretreatment, mean ± SD, n=3
[24] = unlabeled E217βG 1–30 μM, 0.5 and 1 h

## Cc1nc(Nc2ncc(C(=O)Nc3c(C)cccc3Cl)s2)cc(N2CCN(CCO)CC2)n1 [Dasatinib]
[1]; [20]
  Plasma membrane localization of GFP-OATP1B3: did not cause an obvious change
[2]
  Total protein level of OATP1B1 vs vehicle control: similar
[3]
  pKa1: 6.8
  pKa2: 10.8
[3]; neutral species octanol:buffer partition coefficient
  Log PO:W: 1.8
[4]; [21]
  IC50: 4810 ± 1700 nM
[4]; [22]
  IC50: 2330 ± 860 nM
[5]
  Total protein level of OATP1B3 vs vehicle control: similar
[6]
  LDH cytotoxicity: negligible toxicity
[7]; first-order absorption rate constant
  ka: 6 h⁻¹
[7]; fraction available for absorption from dosage form, meta-analysis
  fa: 0.781
[7]; from allometric scaling
  Vss: 4.2 L/kg
[7]; observed value (CV% 106.5)
  CLPO: 449.4 L/h
[7]; observed value
  CLR: 0.4 L/h
[8]; [20]
  Plasma membrane localization of GFP-OATP1B1: did not cause an obvious change
[9]
  Increase of AUC of simvastatin: 20%
  Increase of AUC of simvastatin acid: 27%
[10]; 5 - 20 μM for 0.5 and 1 h
  Effect of pretreatment on OATP1B1-mediated [3H]-E217βG accumulation: significantly decreased
[11]
  Decrease of OATP1B1-mediated [3H]-E217βG transport: ~ 70%

## C[C@]12CC[C@@H]3c4ccc(O)cc4CC[C@H]3[C@@H]1CC[C@@H]2O[C@@H]1O[C@H](C(=O)O)[C@@H](O)[C@H](O)[C@H]1O [E217βG, estradiol 17β-D-glucuronide]
[12]; 1 μM, 2 min, HEK293-GFP-OATP1B1 (data not shown)
  [3H]-E217βG accumulation vs HEK293-Mock cells: 390 fold
[13]; [23]
  Vmax of E217βG transport mediated by OATP1B3: 15.8 ± 1.6 pmol/mg protein/min
[13]; [24]
  Effect of pretreatment on OATP1B3-mediated transport of [3H]-E217βG: only slightly decreases or has no effect
[10]; [23]
  Vmax of E217βG transport mediated by OATP1B1: 55.2 ± 1.6 pmol/mg protein/min
[10]; [24]
  Effect of pretreatment on OATP1B1-mediated transport of [3H]-E217βG: only slightly decreases or has no effect
[14]; 1 μM, 2 min, HEK293-GFP-OATP1B3 (data not shown)
  [3H]-E217βG accumulation vs HEK293-Mock cells: ~ 34 fold

## CO[C@H]1/C=C/O[C@@]2(C)Oc3c(C)c(O)c4c(O)c(c(/C=N/N5CCN(C)CC5)c(O)c4c3C2=O)NC(=O)/C(C)=C\C=C\[C@H](C)[C@H](O)[C@@H](C)[C@@H](O)[C@@H](C)[C@H](OC(C)=O)[C@@H]1C [Rifampicin]
[1]; 10 μM, 1–61 min
  Plasma membrane localization of GFP-OATP1B3: primarily localized at the plasma membrane
[15]
  Effect of pre-incubation on OATP1B1-mediated [3H]-E1S transport: did not significantly affect
[2]
  Total protein level of OATP1B1 vs vehicle control: similar
[16]
  Effect of pre-incubation on OATP1B1-mediated [3H]-pitavastatin accumulation: significantly decreased
[17]; [21]
  IC50: 260 ± 30 nM
[17]; [22]
  IC50: 100 ± 10 nM
[12]; 10 μM for 0.5 and 1 h
  Effect of pretreatment on [3H]-E217βG accumulation in HEK293-GFP-OATP1B1: significantly decreased
[4]; [21]
  IC50: 740 ± 80 nM
[4]; [22]
  IC50: 240 ± 30 nM
[5]
  Total protein level of OATP1B3 vs vehicle control: similar
[18]
  Maximum possible unbound concentration at the inlet to the liver (Iu,in,max): 10.7 µM
[19]
  Effect of pretreatment on OATP1B1-mediated [3H]-E1S transport: did not affect
[8]; 10 μM, 1–61 min
  Plasma membrane localization of GFP-OATP1B1: primarily localized at the plasma membrane
[10]; 1 – 25 μM for 0.5 h and 0.5 – 25 μM for 1 h, washed
  Effect of pre-incubation on OATP1B1-mediated [3H]-E217βG transport: significantly decreased
[10]; pretreatment 10 μM, 1 h
  Change of Km of OATP1B1-mediated E217βG transport vs control: ~ 1.5 fold
  Decrease of Vmax of OATP1B1-mediated E217βG transport vs control: ~ 3.5 fold
[14]; 10 μM for 0.5 and 1 h
  Effect of pretreatment on [3H]-E217βG accumulation in HEK293-GFP-OATP1B3: significantly decreased
